Target: Glycogen synthase kinase-3 alpha (Homo sapiens, UniProt P49840)
Assay: Enzyme Inhibition Assay: The inhibitory activities of compounds of the invention against the GSK 3α enzyme isoform (Invitrogen), are evaluated by determining the level of activation/phosphorylation of the target peptide. The GSK3-α protein (500 ng/mL, 2.5 μL) is mixed with the test compound (2.5 μL at either 4 μg/mL, 0.4 μg/mL, 0.04 μg/mL, or 0.004 μg/mL) for 2 hr at RT. The FRET peptide (8 μM, 2.5 μL), which is a phosphorylation target for GSK3α, and ATP (40 μM, 2.5 μL) are then added to the enzyme/compound mixture and the resulting mixture incubated for 1 hr. Development reagent (protease, 5 μL) is added for 1 hr prior to detection in a fluorescence microplate reader (Varioskan® Flash, ThermoFisher Scientific).In all cases, the site-specific protease cleaves non-phosphorylated peptide only and eliminates the FRET signal. Phosphorylation levels of each reaction are calculated using the ratio of coumarin emission (donor) over fluorescein emission (acceptor), for which high ratios indicate […] phosphorylation levels.

Sequence of Glycogen synthase kinase-3 alpha (P49840 whole entry, canonical isoform): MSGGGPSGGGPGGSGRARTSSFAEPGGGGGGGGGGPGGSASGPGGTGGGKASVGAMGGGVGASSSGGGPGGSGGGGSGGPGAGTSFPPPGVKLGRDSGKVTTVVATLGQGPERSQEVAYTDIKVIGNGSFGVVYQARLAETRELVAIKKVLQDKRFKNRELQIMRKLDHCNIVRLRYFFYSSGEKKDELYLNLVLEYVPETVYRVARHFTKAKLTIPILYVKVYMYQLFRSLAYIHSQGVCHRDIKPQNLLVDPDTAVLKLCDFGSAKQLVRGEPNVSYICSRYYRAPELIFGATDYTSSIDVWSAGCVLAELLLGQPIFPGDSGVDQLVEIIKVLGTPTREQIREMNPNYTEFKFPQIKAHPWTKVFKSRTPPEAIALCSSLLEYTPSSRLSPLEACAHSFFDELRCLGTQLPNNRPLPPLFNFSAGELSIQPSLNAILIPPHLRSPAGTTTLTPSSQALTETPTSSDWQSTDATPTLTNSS

| SMILES | IC50 [nM] |
| --- | --- |
| COc1cc(N=S(C)(C)=O)cc(Nc2nccc(Oc3ccc(NC(=O)Nc4cc(C(C)C)nn4-c4ccc(C)cc4)c4ccccc34)n2)c1 | 824 |
| COc1cc(Nc2nccc(Oc3ccc(NC(=O)Nc4cc(C(C)(C)C)nn4-c4ccc(C)cc4)c(Cl)c3Cl)n2)cc(S(=O)(=O)C2CC2)c1 | > 10000 |

Reference: ChEMBL document CHEMBL5726327, “Kinase inhibitors” (2017)
